Test results published in patent US6372183B1 (priority 1991, dated 2002).
Read-outs that look alike come from different tables or passages of the source.

Columns and labels:
[1] = test system: nicotinic acetylcholine receptors (NAChR)
Method: The cells were plated and loaded with the fluorescent dye Fluo-3 and the assays were carried out substantially as described in the modified method of Example 3A except that the nicotinic receptors of the cells were activated.

[2] = test system: muscarinic acetylcholine receptors (MAChRs)
[3] = test system: voltage-dependent calcium channels
Method: (§1) SHSY5Y cells, induced for six days with 10 μM retinoic acid (Sigma), and IMR32 cells, induced for ten days with 1 mM dibutyryl cAMP (dbcAMP) and 2.5 μM bromodeoxyuridine (BrdU) (both from Boehringer-Mannheim, Indianapolis, IN) were treated with various calcium channel interactive drugs before kCl depolarization and measurement of fluorescence.

[4] = target: human neuronal calcium channel α1D, α2 and β subunits (Homo sapiens, UniProt Q01668); settings: 13old cells; 50 mM KCl
Method: The assays were conducted using the fully automated version of the assay, as described for analysis of calcium channels in positive control IMR32 and SHSY5Y cells. Fluorescence was measured prior to addition of KCl to the cells to record pre-reagent fluorescence, i.e., noise, fluorescence. Signal fluorescence is the maximal fluorescence recorded after addition of KCl to the cells.
The automated assays were performed as described for analysis of calcium channel activity of IMR32 and SHSY5Y cells. For each dose-dependence assay, different wells of the microtiter plate received different concentrations of the agonist or antagonist, the background fluorescence was measured, and. […] Repeated fluorescence measurements were made before and after KCl addition and the values were recorded. A total of five fluorescence readings were taken before KCl addition. […] The plate was then automatically repositioned at the fluorescence measuring position (a delay of two seconds was measured between reagent addition and the first fluorescence measurement after reagent addition) and 125 fluorescence measurements were taken and values were recorded. […]
Dose-response curves were generated from the fluorescence data. In constructing these curves, the fluorescence value recorded in the presence of each concentration of compound was plotted as the percent maximum fluorescence vs. concentration. […]

[5] = test system: voltage-dependent calcium channels; remark: listed apart in the source
Method: as §1

Sequence of human neuronal calcium channel α1D, α2 and β subunits (Q01668 whole entry): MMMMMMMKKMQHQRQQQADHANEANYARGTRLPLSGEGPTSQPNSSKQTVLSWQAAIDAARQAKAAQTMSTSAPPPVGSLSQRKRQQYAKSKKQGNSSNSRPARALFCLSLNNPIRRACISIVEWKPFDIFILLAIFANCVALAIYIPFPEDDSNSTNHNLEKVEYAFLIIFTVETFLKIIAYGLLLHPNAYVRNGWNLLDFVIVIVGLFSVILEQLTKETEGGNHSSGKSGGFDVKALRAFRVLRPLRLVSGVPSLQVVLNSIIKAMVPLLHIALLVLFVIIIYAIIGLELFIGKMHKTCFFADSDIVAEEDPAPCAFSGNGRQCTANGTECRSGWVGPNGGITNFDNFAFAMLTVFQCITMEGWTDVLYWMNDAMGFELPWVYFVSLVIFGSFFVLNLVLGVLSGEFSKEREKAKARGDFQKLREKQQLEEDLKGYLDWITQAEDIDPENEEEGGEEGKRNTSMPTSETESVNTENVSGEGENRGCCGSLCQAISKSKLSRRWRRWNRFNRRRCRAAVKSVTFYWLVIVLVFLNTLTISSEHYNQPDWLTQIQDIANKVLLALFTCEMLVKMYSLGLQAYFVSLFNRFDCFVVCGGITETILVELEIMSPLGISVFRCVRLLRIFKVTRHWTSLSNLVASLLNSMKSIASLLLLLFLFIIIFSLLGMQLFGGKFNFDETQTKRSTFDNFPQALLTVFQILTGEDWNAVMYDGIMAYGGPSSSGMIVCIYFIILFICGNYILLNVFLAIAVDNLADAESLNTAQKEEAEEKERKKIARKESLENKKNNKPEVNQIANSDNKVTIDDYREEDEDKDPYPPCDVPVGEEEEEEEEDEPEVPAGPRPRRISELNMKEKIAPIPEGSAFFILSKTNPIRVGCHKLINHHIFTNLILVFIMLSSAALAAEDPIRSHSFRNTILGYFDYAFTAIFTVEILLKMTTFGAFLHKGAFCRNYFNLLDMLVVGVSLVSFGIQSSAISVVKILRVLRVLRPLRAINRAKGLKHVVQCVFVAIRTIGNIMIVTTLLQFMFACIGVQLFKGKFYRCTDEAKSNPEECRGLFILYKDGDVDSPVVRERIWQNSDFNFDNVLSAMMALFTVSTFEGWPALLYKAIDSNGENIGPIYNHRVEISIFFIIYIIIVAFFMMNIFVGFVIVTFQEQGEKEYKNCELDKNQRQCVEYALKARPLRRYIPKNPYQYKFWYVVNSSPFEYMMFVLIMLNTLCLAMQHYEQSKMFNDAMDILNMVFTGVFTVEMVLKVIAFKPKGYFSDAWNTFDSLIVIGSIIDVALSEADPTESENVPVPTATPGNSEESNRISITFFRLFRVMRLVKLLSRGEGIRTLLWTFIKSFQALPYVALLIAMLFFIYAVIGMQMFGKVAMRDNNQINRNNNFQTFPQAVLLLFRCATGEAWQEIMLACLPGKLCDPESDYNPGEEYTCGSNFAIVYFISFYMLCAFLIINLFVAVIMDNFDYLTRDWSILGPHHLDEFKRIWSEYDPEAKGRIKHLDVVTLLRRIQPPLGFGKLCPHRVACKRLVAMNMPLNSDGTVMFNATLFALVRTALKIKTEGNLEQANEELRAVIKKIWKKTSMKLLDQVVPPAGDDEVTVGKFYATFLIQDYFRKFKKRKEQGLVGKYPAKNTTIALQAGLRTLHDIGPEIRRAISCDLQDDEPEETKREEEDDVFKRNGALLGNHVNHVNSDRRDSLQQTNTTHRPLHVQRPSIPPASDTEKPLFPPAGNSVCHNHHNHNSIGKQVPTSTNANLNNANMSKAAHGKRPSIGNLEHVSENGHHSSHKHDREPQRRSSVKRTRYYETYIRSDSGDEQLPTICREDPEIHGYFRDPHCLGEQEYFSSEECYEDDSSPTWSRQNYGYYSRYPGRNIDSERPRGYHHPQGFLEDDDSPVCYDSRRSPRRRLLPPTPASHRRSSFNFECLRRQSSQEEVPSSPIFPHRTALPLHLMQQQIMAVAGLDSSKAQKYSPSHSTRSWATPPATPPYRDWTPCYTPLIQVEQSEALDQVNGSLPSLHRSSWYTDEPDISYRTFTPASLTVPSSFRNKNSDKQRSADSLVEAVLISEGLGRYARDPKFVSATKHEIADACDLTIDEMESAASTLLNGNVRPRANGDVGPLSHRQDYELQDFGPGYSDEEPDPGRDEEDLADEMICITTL

C[N+](C)(C)CCCCCC[N+](C)(C)C [hexamethonium]
Fluorescence S/N ratio [1]: 1.0

CNC1(C)C2CCC(C2)C1(C)C (stereo not shown) [mecamylamine]
Fluorescence S/N ratio [1]: 1.0

CN1CCCC1c1cccnc1 (stereo not shown) [nicotine]
Fluorescence S/N ratio ([1]; IMR32 cells, 200 μM agonist alone, Equation 2): 2.3

CN1[C@@H]2C[C@@H](OC(=O)[C@H](CO)c3ccccc3)C[C@H]1[C@@H]1O[C@@H]12 [scopolamine]
Fluorescence S/N ratio [2]: 1.0

Bay K 8644 [BayK 8644]
Fluorescence Signal to Noise Ratio ([3]; IMR32, 50 mM KCl and 1 μM compound): 2.5
Concentration at which potentiation of the fluorescence response to KCl was maximal [4]: 100 nM
Fluorescence Signal to Noise Ratio ([5]; SHSY5Y, 50 mM KCl and 1 μM compound): 2.7

D-tubocurarine [DTC]
Fluorescence S/N ratio [1]: 1.0

KCl [KC1]
Fluorescence Signal to Noise Ratio ([3]; IMR32 (dbcAMP/BrdU induced), 50 mM KCl alone): 2.3
Fluorescence Signal to Noise Ratio ([5]; SHSY5Y (retinoic acid induced), 50 mM KCl alone): 1.9

cadmium
Fluorescence Signal to Noise Ratio ([3]; IMR32, 50 mM KCl and 200 μM compound): 1.0
Fluorescence Signal to Noise Ratio ([5]; SHSY5Y, 50 mM KCl and 200 μM compound): 1.0

omega-CgTx
Inhibition of the KCl-induced fluorescence increase (in words) [4]: did not completely inhibit
